In PubChem BioAssay (NCI):
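Exposure lasted 48 hours, with cells grown in 96-well plates and compounds tested at five concentrations. GI50 is the concentration that inhibits growth by half. Definition used: TGI = concentration required for complete inhibition of growth.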

Key:
Assay in all cases: NCI anticancer screen, dose series, 48 h
HL-60(TB) leukemia = system: HL-60(TB) leukemia
HT29 colon = system: HT29 colon
NCI-H23 lung = system: NCI-H23 lung
OVCAR-5 ovarian = system: OVCAR-5 ovarian
OVCAR-8 ovarian = system: OVCAR-8 ovarian
RPMI-8226 leukemia = system: RPMI-8226 leukemia
SK-MEL-5 melanoma = system: SK-MEL-5 melanoma
SN12C renal = system: SN12C renal
UACC-257 melanoma = system: UACC-257 melanoma
MDA-MB-435 = system: MDA-MB-435

| SMILES | TGI (HL-60(TB) leukemia) | TGI (HT29 colon) | TGI (NCI-H23 lung) | TGI (OVCAR-5 ovarian) | TGI (OVCAR-8 ovarian) | TGI (RPMI-8226 leukemia) | TGI (SK-MEL-5 melanoma) | TGI (SN12C renal) | TGI (UACC-257 melanoma) | TGI (MDA-MB-435) | GI50 (HL-60(TB) leukemia) | GI50 (HT29 colon) | GI50 (MDA-MB-435) | GI50 (NCI-H23 lung) | GI50 (OVCAR-5 ovarian) | GI50 (OVCAR-8 ovarian) | GI50 (RPMI-8226 leukemia) | GI50 (SK-MEL-5 melanoma) |
| --- | --- | --- | --- | --- | --- | --- | --- | --- | --- | --- | --- | --- | --- | --- | --- | --- | --- | --- |
| Cc1cccc(=O)c([O-])c1.Cc1cccc(=O)c([O-])c1.Cc1cccc(=O)c([O-])c1.Cc1cccc(=O)c([O-])c1.[Th+4] | 4.18 µM | > 49.4 µM | > 76.6 µM | > 100 µM | > 100 µM | > 100 µM | 31.9 µM | > 100 µM | > 63 µM |  |  |  |  |  |  |  |  |  |
| COc1c(-c2ccc(F)cc2)oc2cc(O)cc(O)c2c1=O | 70.1 µM | 44.6 µM | 78.2 µM | 80.5 µM | 69.4 µM | > 100 µM | 30.1 µM | 83.6 µM |  | 93.8 µM |  |  |  |  |  |  |  |  |
| COc1ccccc1NC(=O)CSC(N)=O | > 100 µM | > 100 µM | > 100 µM | > 100 µM | > 100 µM | > 100 µM | > 100 µM | > 100 µM | > 100 µM |  |  |  |  |  |  |  |  |  |
| COc1ccc(-c2cc(-c3ccc(OC)c(OC)c3)nc(SCCCC(=O)NO)n2)cc1 | 5.99 µM | > 100 µM | 6.16 µM | 6.25 µM | > 100 µM | 6.21 µM | 3.68 µM |  |  | 4.15 µM | 1640 nM | 1870 nM | 1270 nM | 1960 nM | 1530 nM | 782 nM | 752 nM | 1820 nM |
| O=C1CCc2cc3c(cc21)C(C(=O)O)CC3 (stereo unspecified) | > 100 µM | > 100 µM | > 100 µM | > 100 µM | > 100 µM | > 100 µM | > 100 µM | > 100 µM | > 100 µM |  |  |  |  |  |  |  |  |  |
| COc1ccc(Nc2nc(NNC(=O)Cc3ccccc3)nc(NNC(=O)c3ccncc3)n2)cc1 |  | > 10 µM | > 10 µM | > 10 µM | > 10 µM |  | > 10 µM | > 10 µM | > 10 µM | > 10 µM |  |  |  |  |  |  |  |  |
| c1cc2c3c(c1)[C@@H]1O[C@@H]1c1cccc(c1-3)[C@@H]1O[C@H]21 |  | 50.1 µM | 33.1 µM | 31.4 µM | 46.2 µM |  | 35.6 µM | 54.2 µM | 48.4 µM | 32.5 µM |  |  |  |  |  |  |  |  |
| S=c1oc(CCCCCCCCc2nn(CNc3ccc(Cl)cc3)c(=S)o2)nn1CNc1ccc(Cl)cc1 |  | > 100 µM | > 100 µM | > 100 µM |  | > 100 µM | 39.8 µM | > 100 µM | > 100 µM | > 100 µM |  |  |  |  |  |  |  |  |
| C/C(=C\COP(=O)(O)OP(=O)(O)O)CC/C=C(\C)CNc1ccccc1 |  | > 50 µM |  | > 50 µM | > 50 µM | 0.0403 µM | > 50 µM | > 50 µM | > 50 µM | > 50 µM |  |  |  |  |  |  |  |  |
| COC(C/C=C\C=C\CC/C=C/CC(C)/C=C/C(=C\C(=O)O)CC(=O)O)/C(C)=C\C=C(/C)C(=O)O (stereo unspecified) |  | > 100 µM | > 100 µM | > 100 µM |  | > 100 µM | > 100 µM | > 100 µM | > 100 µM | > 100 µM |  |  |  |  |  |  |  |  |
| CCCCCCCCCCC[N+]1(Cc2ccccc2)CC2CCN(Cc3ccccc3)CC2C1 (stereo unspecified) | 0.277 µM | 1.71 µM | 1.03 µM | 2.9 µM | 1.5 µM | 0.378 µM | 0.357 µM | 1.5 µM | 1.14 µM |  |  |  |  |  |  |  |  |  |
| Cc1cc2nc3c(N)nn(CCN(C)C)c3nc2cc1C |  | > 100 µM | > 100 µM | > 100 µM | > 100 µM | > 100 µM | > 100 µM | > 100 µM | > 100 µM | > 100 µM |  |  |  |  |  |  |  |  |
| CC(=O)c1cc(S(=O)(=O)c2ccc(O)c(C(C)=O)c2)ccc1O |  | > 100 µM | > 100 µM | > 100 µM | > 100 µM | > 100 µM | > 100 µM | > 100 µM | > 100 µM | > 100 µM |  |  |  |  |  |  |  |  |
| O=C(O)c1cc(Nc2c(O)c3c(c(O)c2Cl)C(=O)C=CC3=O)ccc1O |  | > 10 µM | > 10 µM | > 10 µM | > 10 µM |  | > 10 µM | > 10 µM | > 10 µM | > 10 µM |  |  |  |  |  |  |  |  |
| C/C=C\C(CC(=O)NCCc1c[nH]c2ccccc12)CC(=O)OC (stereo unspecified) |  | > 100 µM | > 100 µM | > 100 µM | > 100 µM | > 100 µM | > 100 µM |  | > 100 µM | > 100 µM |  |  |  |  |  |  |  |  |
| O=C(NCCNCCO)N/N=C/c1ccccc1 | > 100 µM | > 100 µM | > 100 µM |  | > 100 µM |  | > 100 µM | > 100 µM | > 100 µM |  |  |  |  |  |  |  |  |  |
| Cn1c(O)c(/C=N/c2ncccn2)c(=O)[nH]c1=O | > 100 µM | > 100 µM | > 100 µM | > 100 µM | > 100 µM |  | > 100 µM | > 100 µM | > 100 µM | > 100 µM |  |  |  |  |  |  |  |  |
